Assay results: patent publication US6630125B2, “18F-labeled choline analogs” (priority 2000, dated 2003)
pIC50: −log10 of the molar value.

Assays:
yeast choline kinase = target: T1, yeast choline kinase (Saccharomyces cerevisiae, UniProt P20485); assay: In vitro phosphorylation by yeast choline kinase; type: biochemical
T1 sequence (P20485 1-582): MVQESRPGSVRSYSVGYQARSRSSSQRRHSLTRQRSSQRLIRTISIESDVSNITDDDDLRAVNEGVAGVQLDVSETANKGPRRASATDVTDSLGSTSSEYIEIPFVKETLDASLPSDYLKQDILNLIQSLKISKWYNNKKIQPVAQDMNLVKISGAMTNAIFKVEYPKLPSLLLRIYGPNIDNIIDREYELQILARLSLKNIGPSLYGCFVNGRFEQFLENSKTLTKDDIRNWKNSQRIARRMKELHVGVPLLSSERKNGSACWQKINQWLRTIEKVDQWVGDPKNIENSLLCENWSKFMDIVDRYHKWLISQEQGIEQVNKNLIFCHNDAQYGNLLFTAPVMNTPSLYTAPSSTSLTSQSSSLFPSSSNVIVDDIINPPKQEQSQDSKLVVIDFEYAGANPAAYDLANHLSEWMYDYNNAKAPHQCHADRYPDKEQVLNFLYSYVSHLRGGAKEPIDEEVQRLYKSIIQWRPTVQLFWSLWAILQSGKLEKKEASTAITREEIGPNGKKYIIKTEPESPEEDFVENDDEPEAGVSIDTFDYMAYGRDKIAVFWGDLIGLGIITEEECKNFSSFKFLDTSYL
Experimental: The test tube was gently agitated throughout the incubation period. The reaction was stopped by placing the tube in a boiling water bath for 2 min. To serve as controls, some samples were placed directly in the boiling water bath after addition of all substrates. […] The percentage of radioactivity converted to the phosphorylated form was calculated.

[1] = tested on: PC-3 prostate cancer cells; assay: Analysis of radiolabeled metabolites in PC-3 prostate cancer cells; type: cell-based, human
Experimental: The primary hydrophilic metabolites of choline in mammals is phosphocholine and betaine. […] The HPLC system used a microprocessor-controlled solvent delivery system and a silica column (Adsorbosphere Silica (10μ), 250×4.6 mm, Alltech, Deerfield, Ill.). The column was kept at room temperature and the flow rate was maintained at 1.5 ml/min. […] Fractions of effluent were collected every 0.5 min and first counted for ^18F-radioactivity in a well-counter for experiments involving [^18F]FCH, then transferred to scintillation vials for counting for ^14C-radioactivity. The column was equilibrated for 6 min with Buffer A before injection. After the injection (<100 μl), Buffer A was delivered for 6 min which eluted betaine (3 min) from the column. […] Re-equilibration of the column with 100% A for 6 min preceded the next injection.
Methanol (1 ml) was added to each well and the cells were lysed by maintaining the temperature at 37° C. for 30 min. The methanol phase was transferred to a glass test tube. Each well was rinsed with an additional 0.5 ml methanol which was added to the original fraction. To each tube, 3 ml chloroform and 1 ml 0.25 M sodium phosphate (pH=4.5) were added to separate lipids from water-soluble molecules. After vigorous mixing of the samples for 1 min, the two phases were separated, and a 0.5 ml aliquot of each phase was counted for ^18F and ^14C radioactivity. The aqueous phase was further analyzed for water-soluble metabolites using the gradient-HPLC method previously described.
Cells incubated in 6-well plates for 2 hr with radiotracers were thoroughly washed to remove all extracellular radioactivity. The cells were lysed in methanol and the methanol solution added to chloroform to solubilize all lipophilic metabolites.

[2] = Stability of the FCH preparation (HPLC); type: physicochemical; conditions: room temperature for 7 hr, cation-exchange HPLC
Experimental: (§1) The stability of FCH in its prepared form was evaluated by monitoring the radiochemical purity using the HPLC system described above. […] After an incubation of 2 hr at 37 C, the plasma was separated, the plasma proteins precipitated by adding two volumes of methanol, and the supernatant was analyzed for intact FCH by cation-exchange HPLC. […] FCH was also found to be stable in a blood samples taken from healthy human subjects (n=5).

[3] = Stability of FCH in human whole blood; type: in vitro ADME; conditions: 2 hr, 37 C, blood of healthy human subjects (n=5)
Experimental: as §1

[4] = tested on: patients with prostate cancer; assay: PET imaging in patients with prostate cancer; conditions: human, in vivo
Experimental: The distribution of FCH in PET imaging studies was evaluated in 14 patients with prostate cancer, 14 patients with breast cancer, and 5 patients with brain tumors. Imaging was performed using the Advance PET scanner (GE Medical Systems, Milwaukee, Wis.). […] In prostate cancer patients, a transmission scan of the pelvic region was obtained before administration of radiotracer. FCH (2.5-5 mCi) was administered intravenously, and dynamic imaging of the pelvis region was commenced for 20-30 min. During image reconstruction, the emission data in the pelvic region were corrected for photon attenuation using the transmission scan. Immediately following the dynamic scan, a whole-body emission scan was performed without transmission scanning for attenuation correction. The images were reconstructed using an Ordered Subset Expectation Maximum (OS-EM) algorithm. Regions-of-interest were drawn manually on the attenuation corrected images for evaluation of FCH kinetics in tissues. Standardized uptake values of FCH uptake in tissues were calculated using the attenuation-corrected images according to the equation: [formula]
Patient 2: Transmission and FCH emission scans of a person with hormone naive clinical stage T2 prostate cancer were commenced over the lower pelvis.
The same patient was scanned with FDG within the same week (FIG. 8).
Patient 4: A person with a history of clinical stage T3b prostate cancer treated by radical retropubic prostatectomy was diagnosed with metastatic disease by bone scan. FCH-PET imaging was performed before and after initiating androgen deprivation therapy. In the first study, whole-body emission scanning was started 5 min after injection, beginning at the pelvic region in order to image the pelvis and prostatic bed before arrival of urinary radioactivity. […] The patient was rescanned 2 weeks after initiating androgen deprivation therapy.
Patient 5: A person was initially diagnosed five years prior with locally advanced clinical stage T3NOMO prostate cancer and underwent radical prostatectomy followed by external beam radiation to the prostate bed. […] The patient was then treated with Zolex and Casodex.

What does the source list for C[N+](C)(CF)CCO.[Cl-] [FCH, dimethylfluoromethyl-2-hydroxyethylammonium chloride]?
phosphorylation rate compared with CH (yeast choline kinase; 1 μM choline): equivalent to CH; In vitro phosphorylation (yeast choline kinase; 1 μM choline, 25 mU/ml yeast choline kinase, 23° C., 10 min, n = 5): 62.0 ± 8.8%; pIC50 (yeast choline kinase; choline 1-10,000 μM, 25 mU/ml choline kinase, 10 min, 23 C, read-out: apparent IC50 for inhibition of phosphorylation of radiotracer by choline): ~3.40; ^18F-labeled species: hydrophilic metabolites, FCH ([1]; +HC-3 (5 mM hemicholinium-3)): 0.04 ± 0.01 percentage of administered dose; ^18F-labeled species: hydrophilic metabolites, P-FCH ([1]; +HC-3 (5 mM hemicholinium-3)): 0.12 ± 0.03 percentage of administered dose; ^18F-labeled species: lipophilic metabolites ([1]; +HC-3 (5 mM hemicholinium-3)): 0.01 ± 0.01 percentage of administered dose; ^18F-labeled species: hydrophilic metabolites, FCH ([1]; Control, 2 hr, 37° C.): 0.29 ± 0.05 percentage of administered dose; ^18F-labeled species: hydrophilic metabolites, P-FCH ([1]; Control, 2 hr, 37° C.): 7.1 ± 0.9 percentage of administered dose; ^18F-labeled species: lipophilic metabolites ([1]; Control, 2 hr, 37° C.): 2.4 ± 0.4 percentage of administered dose; incorporation of radioactivity into lipophilic species, FCH relative to [^14C]CH ([1]; PC-3 cells, 2 hr): 5 fold; oxidation in the cancer cells (betaine / fluorobetaine by HPLC) ([1]; PC-3 cells, 2 hr): negligible; share of cell radioactivity found as phosphorylated tracer (phosphorylfluorocholine / phosphocholine) ([1]; PC-3 cells, 2 hr): Approximately 72%; share of total cell radioactivity as lipophilic metabolites ([1]; PC-3 cells, 2 hr): 25%; radiochemical purity after storage of the preparation [2]: > 99%; stability in whole blood (HPLC) [3]: completely intact; decrease of SUV in ischial metastasis [4]: 68%; decrease of SUV in primary tumor [4]: 61%; decrease of SUVs in the tumors [4]: 35-40%; SUV in ischial metastasis ([4]; male): 2.4; SUV in primary tumor ([4]; male): 3.0; SUV index in osseous lesions ([4]; male): 8.0; SUV values in osseous lesions of the pelvis region ([4]; male): 3.8-8.0; injected dose of radioactivity in urine ([4]; male): 1.3%; radioactivity concentration in the brain relative to prostate gland or metastasis ([4]; male): < 2%; time of arrival of radioactivity in the urinary bladder / urine ([4]; male): about 8 min; time to plateau of radioactivity concentration in prostate and metastasis ([4]; male): ≤ 5 min; time to plateau of radioactivity concentration in the prostate bed ([4]; male): ≤ 3 min; tracer uptake in osseous lesions, FCH relative to FDG ([4]; male): 2 fold; arterial concentration relative to the peak level ([4]; male, 2 min): < 5%; SUV of osseous metastasis (left ischium) ([4]; male, 5 min): 7.7; SUV of primary tumor ([4]; male, 5 min): 7.7
